Laboratory results as given in US20250032456A1, “USE OF L-ERGOTHIONEINE TO AMELIORATE AND PREVENT AGE-RELATED VITREOUS DEGENERATION” (NANJING NUTRABUILDING BIO-TECH CO., LTD., priority 2021, published 2025).

Experiments:
[1] = system: rabbits' vitreous gel; assay: Vitreous gel content by gel-liquid separation of rabbit vitreous samples; format: in vivo; details: 2 or 10 mg/kg/d by gavage for 7 months; compared with non-supplement group, ***p<0.001
Experimental: Fifteen young pigmented rabbits weighing 2.3-4.1 kg and aging 2.5-3 years were used in this experiment. At the onset of the investigation, each eye of every rabbit was examined by slit-lamp biomicroscopy and +60 diopter fundus lens through dilated pupils (2% atropine eye drops) to exclude any preexisting abnormalities. After slit-lamp examination, one drop of 0.5% proparacaine hydrochloride was applied for topic anesthesia, and then 0.1 ml of riboflavin (2×10^^−4 M) was injected through a Millipore filter unit into the central vitreous of both eyes, using a 30-gauge needle. All eyes were then irradiated with white light (1.06×10^15 photons sec-1 cm-2) generated by a carousel slide projector without a lens at a distance of 60 cm for 6 hours. During irradiation, the exposed eyes were frequently treated with topical balanced salt solution (BSS) to prevent corneal drying. Their eyes were examined by using slit-lamp biomicroscopy next day, to confirm if they have serious vitreous liquefaction. […] The weight of the vitreous gel was determined, and its percentage was calculated as follows: vitreous gel (%)=(separated vitreous gel wet wt (g)/initial vitreous wet wt (g))×100%.

[2] = system: rabbits' vitreous gel; assay: Slit-lamp biomicroscopy of vitreous structure in rabbits with riboflavin/white-light induced vitreous liquefaction; format: in vivo, rabbit; details: 2 or 10 mg/kg/d by gavage once daily for 7 months, especially in higher dose
Experimental: Fifteen young pigmented rabbits weighing 2.3-4.1 kg and aging 2.5-3 years were used in this experiment. At the onset of the investigation, each eye of every rabbit was examined by slit-lamp biomicroscopy and +60 diopter fundus lens through dilated pupils (2% atropine eye drops) to exclude any preexisting abnormalities. After slit-lamp examination, one drop of 0.5% proparacaine hydrochloride was applied for topic anesthesia, and then 0.1 ml of riboflavin (2×10^^−4 M) was injected through a Millipore filter unit into the central vitreous of both eyes, using a 30-gauge needle. All eyes were then irradiated with white light (1.06×10^15 photons sec-1 cm-2) generated by a carousel slide projector without a lens at a distance of 60 cm for 6 hours. During irradiation, the exposed eyes were frequently treated with topical balanced salt solution (BSS) to prevent corneal drying. Their eyes were examined by using slit-lamp biomicroscopy next day, to confirm if they have serious vitreous liquefaction. They were randomly divided into three groups: (1) non-supplement group (Con, n=5); (2) L-ergothioneine supplement group with low dosage (L-ergothioneine, 2 mg/kg/d, n=5); (3) L-ergothioneine supplement group with high dosage (L-ergothioneine, 10 mg/kg/d, n=5). Some […] were administered L-ergothioneine once daily by gavage in normal saline solution for 7 months. […]

[3] = system: Reactive oxygen species (ROS) of rabbits' lens; assay: Reactive oxygen species quantified by fluorescence spectroscopy using 2',7'-dichlorofluorescein diacetate; format: in vivo, rabbit; details: 2 or 10 mg/kg/d by gavage for 7 months; compared with non-supplement group, ***p<0.001
Experimental: Fifteen young pigmented rabbits weighing 2.3-4.1 kg and aging 2.5-3 years were used in this experiment. At the onset of the investigation, each eye of every rabbit was examined by slit-lamp biomicroscopy and +60 diopter fundus lens through dilated pupils (2% atropine eye drops) to exclude any preexisting abnormalities. After slit-lamp examination, one drop of 0.5% proparacaine hydrochloride was applied for topic anesthesia, and then 0.1 ml of riboflavin (2×10^^−4 M) was injected through a Millipore filter unit into the central vitreous of both eyes, using a 30-gauge needle. All eyes were then irradiated with white light (1.06×10^15 photons sec-1 cm-2) generated by a carousel slide projector without a lens at a distance of 60 cm for 6 hours. During irradiation, the exposed eyes were frequently treated with topical balanced salt solution (BSS) to prevent corneal drying. […]
Antioxidant capacity of the lens was measured using an assay based on the ability of the sample to inhibit the oxidation of 2,2′-azino-di-[3-ethylbenzthiazoline sulfonate]+ (ABTS) by metmyoglobin. The amount of ABTS+ produced was measured in terms of the decrease in absorbance caused by the antioxidants in the sample. Reactive oxygen species (ROS) were quantified by fluorescence spectroscopy using 2′,7′-dichlorofluorescein diacetate.

With C[N+](C)(C)[C@@H](Cc1c[nH]c(=S)[nH]1)C(=O)[O-] [L-ergothioneine] the “vitreous gel content (%) of the rabbits' eye (FIG. 1)” value [1] was “could alleviate vitreous depolymerization and liquefaction”, the “rabbits' vitreous gel observed microscopically (slit-lamp biomicroscopy)” value [2] was “significantly increased” and the “ROS value of rabbits' lens (FIG. 2)” value [3] was “could scavenge chronic ROS directly and radically”.
